Results taken from patent US10202370B2, “Benzimidazole derivatives as selective proteine kinase inhibitors” (AB SCIENCE, priority 2013, dated 2019).

Target: c-kit WT (Homo sapiens (Human), UniProt P10721)
Experiment: Proliferation assay (CellTiter-Blue) on BaF3 Kit WT cell line
Format: cell-based
Settings: BaF3 Kit WT cell line (murine Ba/F3 expressing Human Kit WT, with murine SCF), 48 hours
Procedure, shortened: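 Ba/F3 cells expressing human Kit WT, maintained in RPMI/10% FCS with 250 ng/ml murine SCF, were seeded at 2.10^4 cells/well and exposed to ½ serial dilutions (0–10 μM) for 48 h at 37° C. Viability was measured by CellTiter-Blue fluorescence (544Ex/590Em, 4 h) in triplicate as % of untreated proliferation.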

c-kit WT, sequence (P10721 26-976): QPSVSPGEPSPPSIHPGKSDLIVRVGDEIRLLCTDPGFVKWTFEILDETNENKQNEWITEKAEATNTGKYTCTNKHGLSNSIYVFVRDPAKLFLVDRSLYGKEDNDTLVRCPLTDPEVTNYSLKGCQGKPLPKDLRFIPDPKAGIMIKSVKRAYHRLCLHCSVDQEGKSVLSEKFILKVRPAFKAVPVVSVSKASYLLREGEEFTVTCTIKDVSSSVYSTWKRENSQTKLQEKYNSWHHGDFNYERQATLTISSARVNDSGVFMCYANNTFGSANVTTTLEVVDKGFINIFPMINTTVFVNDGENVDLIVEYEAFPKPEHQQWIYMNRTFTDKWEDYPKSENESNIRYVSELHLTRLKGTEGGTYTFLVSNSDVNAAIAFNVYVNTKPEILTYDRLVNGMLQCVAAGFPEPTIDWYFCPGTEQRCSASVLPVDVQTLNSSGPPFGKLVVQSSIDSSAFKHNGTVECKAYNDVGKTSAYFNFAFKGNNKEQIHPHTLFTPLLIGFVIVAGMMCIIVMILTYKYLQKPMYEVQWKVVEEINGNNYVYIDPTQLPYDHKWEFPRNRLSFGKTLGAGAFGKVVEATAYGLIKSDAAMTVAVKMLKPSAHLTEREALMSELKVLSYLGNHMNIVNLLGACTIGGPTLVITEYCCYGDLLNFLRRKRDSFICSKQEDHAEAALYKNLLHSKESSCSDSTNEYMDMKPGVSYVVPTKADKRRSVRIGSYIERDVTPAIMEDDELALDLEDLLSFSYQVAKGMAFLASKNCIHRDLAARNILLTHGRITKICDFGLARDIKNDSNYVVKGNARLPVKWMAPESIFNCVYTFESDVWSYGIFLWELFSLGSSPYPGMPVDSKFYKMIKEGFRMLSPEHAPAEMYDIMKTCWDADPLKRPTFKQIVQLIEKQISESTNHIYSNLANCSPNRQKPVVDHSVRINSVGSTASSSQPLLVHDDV

Row | SMILES | IC50 [nM]
1 | Cc1cc2c(cc1Nc1nc(-c3ccc(C#N)cc3)cs1)nc(-c1cc(F)cc(C(F)(F)F)c1)n2C [Compound 138, 4-{2-[2-(3-Fluoro-5-trifluoromethyl-phenyl)-1,6-dimethyl-1H-benzoimidazol-5-ylamino]-thiazol-4-yl}-benzonitrile] | ≤ 1000
2 | C#Cc1cccc(-c2nc3cc(Nc4nc(-c5cccnc5)cs4)c(C)cc3[nH]2)c1 [Compound 139, [2-(3-Ethynyl-phenyl)-6-methyl-1H-benzoimidazol-5-yl]-(4-pyridin-3-yl-thiazol-2-yl)-amine] | ≤ 1000
3 | Cc1cc2c(cc1Nc1nc(-c3cccnc3)cs1)nc(-c1cccc(C(C)C)c1)n2C [Compound 140, [2-(3-Isopropyl-phenyl)-1,6-dimethyl-1H-benzoimidazol-5-yl]-(4-pyridin-3-yl-thiazol-2-yl)-amine] | ≤ 1000
4 | C#Cc1cccc(-c2nc3cc(Nc4nc(-c5ccc(C#N)cc5)cs4)c(C)cc3[nH]2)c1 [Compound 141, 4-{2-[2-(3-Ethynyl-phenyl)-6-methyl-1H-benzoimidazol-5-ylamino]-thiazol-4-yl}-benzonitrile] | ≤ 1000
5 | Cc1cc2[nH]c(-c3cccc(C(C)C)c3)nc2cc1Nc1nc(-c2ccc(C#N)cc2)cs1 [Compound 143, 4-{2-[2-(3-Isopropyl-phenyl)-6-methyl-1H-benzoimidazol-5-ylamino]-thiazol-4-yl}-benzonitrile] | ≤ 1000
6 | C#Cc1cccc(-c2nc3cc(Nc4nc(-c5cccnc5)cs4)c(C)cc3n2C)c1 [Compound 146, [2-(3-Ethynyl-phenyl)-1,6-dimethyl-1H-benzoimidazol-5-yl]-(4-pyridin-3-yl-thiazol-2-yl)-amine] | ≤ 1000
7 | Cc1cc2c(cc1Nc1nc(-c3cccnc3)cs1)nc(-c1cc(F)cc(C(F)(F)F)c1)n2C [Compound 148, [2-(3-Fluoro-5-trifluoromethyl-phenyl)-1,6-dimethyl-1H-benzoimidazol-5-yl]-(4-pyridin-3-yl-thiazol-2-yl)-amine] | ≤ 1000
8 | Cc1cc2c(cc1Nc1nc(-c3ccncc3)cs1)nc(-c1cccc(C(C)C)c1)n2C [Compound 151, [2-(3-Isopropyl-phenyl)-1,6-dimethyl-1H-benzoimidazol-5-yl]-(4-pyridin-4-yl-thiazol-2-yl)-amine] | ≤ 1000
9 | Cc1cc2[nH]c(-c3cccc(C(C)(C)C)c3)nc2cc1Nc1nc(-c2ccncc2)cs1 [Compound 153, [2-(3-tert-Butyl-phenyl)-6-methyl-1H-benzoimidazol-5-yl]-(4-pyridin-4-yl-thiazol-2-yl)-amine] | ≤ 1000

Results, then the molecule that gave them:

Row | IC50 [nM] | SMILES
10 | ≤ 1000 | Cc1cc2c(cc1Nc1nc(-c3ccc(C#N)cc3)cs1)nc(-c1cccc(C(C)C)c1)n2C [Compound 142, 4-{2-[2-(3-Isopropyl-phenyl)-1,6-dimethyl-1H-benzoimidazol-5-ylamino]-thiazol-4-yl}-benzonitrile]
11 | ≤ 1000 | Cc1cc2c(cc1Nc1nc(-c3ccc(C#N)cc3)cs1)nc(-c1cccc(C(C)(C)C)c1)n2C [Compound 144, 4-{2-[2-(3-tert-Butyl-phenyl)-1,6-dimethyl-1H-benzoimidazol-5-ylamino]-thiazol-4-yl}-benzonitrile]
12 | ≤ 1000 | Cc1cc2c(cc1Nc1nc(-c3cccnc3)cs1)nc(-c1cccc(C(C)(C)C)c1)n2C [Compound 145, [2-(3-tert-Butyl-phenyl)-1,6-dimethyl-1H-benzoimidazol-5-yl]-(4-pyridin-3-yl-thiazol-2-yl)-amine]
13 | ≤ 1000 | Cc1cc2c(cc1Nc1nc(-c3ccncc3)cs1)nc(-c1cc(F)cc(C(F)(F)F)c1)n2C [Compound 147, [2-(3-Fluoro-5-trifluoromethyl-phenyl)-1,6-dimethyl-1H-benzoimidazol-5-yl]-(4-pyridin-4-yl-thiazol-2-yl)-amine]
14 | ≤ 1000 | Cc1cc2[nH]c(-c3cc(F)cc(C(F)(F)F)c3)nc2cc1Nc1nc(-c2ccncc2)cs1 [Compound 149, [2-(3-Fluoro-5-trifluoromethyl-phenyl)-6-methyl-1H-benzoimidazol-5-yl]-(4-pyridin-4-yl-thiazol-2-yl)-amine]
15 | ≤ 1000 | Cc1cc2[nH]c(-c3cccc(C(C)C)c3)nc2cc1Nc1nc(-c2ccncc2)cs1 [Compound 150, [2-(3-Isopropyl-phenyl)-6-methyl-1H-benzoimidazol-5-yl]-(4-pyridin-4-yl-thiazol-2-yl)-amine]
16 | ≤ 1000 | Cc1cc2c(cc1Nc1nc(-c3ccncc3)cs1)nc(-c1cccc(C(C)(C)C)c1)n2C [Compound 152, [2-(3-tert-Butyl-phenyl)-1,6-dimethyl-1H-benzoimidazol-5-yl]-(4-pyridin-4-yl-thiazol-2-yl)-amine]
17 | ≤ 1000 | Cc1cc2[nH]c(-c3cccc(C(C)(C)C)c3)nc2cc1Nc1nc(-c2ccc(C#N)cc2)cs1 [Compound 154, 4-{2-[2-(3-tert-Butyl-phenyl)-6-methyl-1H-benzoimidazol-5-ylamino]-thiazol-4-yl}-benzonitrile]
